Assay results from paper PMC11956013, “Structure–Activity Relationships and Evaluation of 2-(Heteroaryl-cycloalkyl)-1H-indoles as Tauopathy Positron Emission Tomography Radiotracers” (Journal of Medicinal Chemistry, 2025).

How the values were obtained:
[1] = biological target: alpha2B (h) (Homo sapiens, UniProt P18089)
[2] = biological target: T1, cathepsin L (h) (Homo sapiens, UniProt P07711); experiment: Eurofins panel: cathepsin L (h) enzymatic activity; assay type: biochemical; settings: 1.0E-05 M; cathepsin L (h)
T1 construct: Eurofins (panel run by the vendor)

[3] = biological target: T2, GABAB(B1b/B2) Human GABA B GPCR (Homo sapiens, UniProt Q9UBS5); experiment: GABAB(B1b/B2) Human GABA B GPCR Mass Spectrometry Binding (Antagonist Ligand) Assay, Cerep, assay 4699
T2 construct: Eurofins (Cerep) assay 4699

[4] = biological target: alpha1B (h) (Homo sapiens, UniProt P35368); settings: 1.0E-05 M; alpha1B (h) (antagonist radioligand)
[5] = biological target: CYP2D6 (Homo sapiens, UniProt P10635); experiment: in vitro; settings: human liver microsomes, probe dextromethorphan
[6] = biological target: IRK (h) (InsR) (Homo sapiens, UniProt P06213); experiment: biochemical
[7] = biological target: T3, M5 (h) (Homo sapiens, UniProt P08912); experiment: M5 (h) (antagonist radioligand), Eurofins assay 97
T3 sequence (P08912 1-532): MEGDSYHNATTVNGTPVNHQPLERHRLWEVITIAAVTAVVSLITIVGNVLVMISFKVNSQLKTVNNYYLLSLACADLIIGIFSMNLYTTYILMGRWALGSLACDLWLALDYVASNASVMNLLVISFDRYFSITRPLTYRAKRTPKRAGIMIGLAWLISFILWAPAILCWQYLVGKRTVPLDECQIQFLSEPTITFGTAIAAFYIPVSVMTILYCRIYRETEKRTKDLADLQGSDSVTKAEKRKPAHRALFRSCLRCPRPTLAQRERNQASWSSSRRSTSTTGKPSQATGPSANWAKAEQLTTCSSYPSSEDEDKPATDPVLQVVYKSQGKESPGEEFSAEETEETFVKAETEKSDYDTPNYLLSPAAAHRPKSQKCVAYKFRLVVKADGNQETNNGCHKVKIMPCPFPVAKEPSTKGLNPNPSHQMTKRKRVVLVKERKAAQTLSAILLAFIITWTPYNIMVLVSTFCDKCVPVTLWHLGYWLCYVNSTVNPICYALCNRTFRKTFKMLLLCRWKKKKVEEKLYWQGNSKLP

[8] = biological target: OX1 (h) (Homo sapiens, UniProt O43613); settings: compound concentration 1.0E-05 M
[9] = biological target: beta2 (h) (Homo sapiens, UniProt P07550); experiment: Eurofins panel: beta2 (h) (antagonist radioligand); settings: 1.0E-05 M
[10] = biological target: MAO-A, human, monoamine oxydase A (Homo sapiens, UniProt P21397); experiment: MAO-A, human, monoamine oxydase A, MAO, Enzymatic Assay, Cerep, assay 5108
[11] = biological target: Oxytocin (h) (Homo sapiens, UniProt P30559); settings: compound concentration 1.0E-05 M
[12] = biological target: T4, 5-HT2A (h) (Homo sapiens, UniProt P28223); experiment: Eurofins panel: 5-HT2A (h) (agonist radioligand); assay type: binding; settings: 1.0E-05 M; 5-HT2A (h) (agonist radioligand)
T4 construct: purchased Eurofins (contract screening, CNS SafetyScreen panel)

[13] = biological target: A3 (h) (Homo sapiens, UniProt P0DMS8); settings: 1.0E-05 M; A3 (h) (agonist radioligand)
[14] = biological target: N neuronal alpha7 (h) (Homo sapiens, UniProt P36544); experiment: Eurofins panel: N neuronal alpha7 (h) (antagonist radioligand); settings: compound concentration 1.0E-05 M
[15] = biological target: kappa (h) (KOP) (Homo sapiens, UniProt P41145); experiment: biochemical; assay type: binding
[16] = biological target: 5-HT3 (h) (Homo sapiens, UniProt P46098); settings: 1.0E-05 M; 5-HT3 (h) (antagonist radioligand)
[17] = biological target: CYP2C19 (Homo sapiens, UniProt P33261); experiment: in vitro; settings: human liver microsomes, probe omeprazole
[18] = biological target: EGFR kinase (h) (Homo sapiens, UniProt P00533); settings: Enzymatic activity; 1.0E-05 M
[19] = biological target: delta (DOP) (h) (Homo sapiens, UniProt P41143); experiment: biochemical
[20] = biological target: T5, tyrosine hydroxylase (Rattus norvegicus, UniProt P04177); experiment: Eurofins panel: tyrosine hydroxylase; assay type: biochemical; settings: compound concentration 1.0E-05 M
T5 construct: purchased Eurofins (CNS SafetyScreen panel, contract assay)

[21] = biological target: alpha2C (h) (Homo sapiens, UniProt P18825); settings: 1.0E-05 M; alpha2C (h) (antagonist radioligand)
[22] = biological target: H1 (h) (Homo sapiens, UniProt P35367); experiment: biochemical
[23] = tested on: kainate; experiment: kainate (agonist radioligand), Eurofins assay 65; settings: Specific binding; 1.0E-05 M
[24] = biological target: D3 (h) (Homo sapiens, UniProt P35462); experiment: D3 (h) (antagonist radioligand), Eurofins assay 48
[25] = biological target: A2B (h) (Homo sapiens, UniProt P29275); experiment: Eurofins panel: A2B (h) (antagonist radioligand); settings: 1.0E-05 M
[26] = biological target: T6, PDE4D2 (h) (Homo sapiens, UniProt Q08499); experiment: Eurofins panel: PDE4D2 (h); assay type: biochemical; settings: compound concentration 1.0E-05 M
T6 construct: purchased Eurofins (CNS SafetyScreen panel, contract assay)

[27] = tested on: TNF-alpha (h); settings: compound concentration 1.0E-05 M
[28] = biological target: T7, Glutamate (Non-Selective) Rat Ion Channel Glycine (Strychnine-Insensitive) (Rattus norvegicus, UniProt P35439); experiment: Glutamate (Non-Selective) Rat Ion Channel Glycine (Strychnine-Insensitive), Mass Spectrometry Binding, assay 5043
T7 construct: Eurofins assay 5043

[29] = tested on: Ca2+ channel (L, verapamil site) (phenylalkylamine); experiment: Eurofins panel: Ca2+ channel (L, verapamil site) (phenylalkylamine) (antagonist radioligand); assay type: binding; settings: 1.0E-05 M

Chain of OX1 (h) (O43613 whole entry): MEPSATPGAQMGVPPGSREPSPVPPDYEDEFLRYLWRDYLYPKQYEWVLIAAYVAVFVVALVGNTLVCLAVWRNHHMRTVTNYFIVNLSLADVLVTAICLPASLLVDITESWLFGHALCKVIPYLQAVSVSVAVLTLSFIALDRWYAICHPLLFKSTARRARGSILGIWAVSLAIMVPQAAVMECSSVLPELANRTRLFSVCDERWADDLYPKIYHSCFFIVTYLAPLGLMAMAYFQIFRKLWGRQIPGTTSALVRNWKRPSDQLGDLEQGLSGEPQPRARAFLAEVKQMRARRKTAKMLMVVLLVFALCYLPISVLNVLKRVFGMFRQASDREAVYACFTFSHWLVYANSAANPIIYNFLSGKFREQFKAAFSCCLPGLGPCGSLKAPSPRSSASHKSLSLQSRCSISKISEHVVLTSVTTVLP
Chain of A3 (h) (P0DMS8 whole entry): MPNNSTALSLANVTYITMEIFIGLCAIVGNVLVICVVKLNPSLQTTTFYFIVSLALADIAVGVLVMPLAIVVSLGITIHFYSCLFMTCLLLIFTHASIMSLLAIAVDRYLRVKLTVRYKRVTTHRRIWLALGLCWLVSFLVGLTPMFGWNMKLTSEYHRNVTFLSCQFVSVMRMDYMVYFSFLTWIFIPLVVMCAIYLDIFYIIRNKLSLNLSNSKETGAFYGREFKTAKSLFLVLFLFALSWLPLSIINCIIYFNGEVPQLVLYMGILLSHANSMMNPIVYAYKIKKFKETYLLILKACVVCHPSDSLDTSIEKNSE
Chain of D3 (h) (P35462 whole entry): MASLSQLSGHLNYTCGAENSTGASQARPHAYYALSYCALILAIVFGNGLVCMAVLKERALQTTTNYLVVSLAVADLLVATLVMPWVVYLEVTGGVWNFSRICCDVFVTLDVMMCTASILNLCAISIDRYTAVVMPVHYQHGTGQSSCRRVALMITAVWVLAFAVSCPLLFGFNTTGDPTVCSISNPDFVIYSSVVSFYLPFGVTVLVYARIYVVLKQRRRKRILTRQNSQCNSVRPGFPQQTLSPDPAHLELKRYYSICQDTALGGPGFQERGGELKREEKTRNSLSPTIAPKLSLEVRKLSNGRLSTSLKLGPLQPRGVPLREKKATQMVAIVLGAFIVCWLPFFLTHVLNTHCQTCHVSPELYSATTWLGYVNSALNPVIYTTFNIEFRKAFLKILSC
Chain of MAO-A, human, monoamine oxydase A (P21397 whole entry): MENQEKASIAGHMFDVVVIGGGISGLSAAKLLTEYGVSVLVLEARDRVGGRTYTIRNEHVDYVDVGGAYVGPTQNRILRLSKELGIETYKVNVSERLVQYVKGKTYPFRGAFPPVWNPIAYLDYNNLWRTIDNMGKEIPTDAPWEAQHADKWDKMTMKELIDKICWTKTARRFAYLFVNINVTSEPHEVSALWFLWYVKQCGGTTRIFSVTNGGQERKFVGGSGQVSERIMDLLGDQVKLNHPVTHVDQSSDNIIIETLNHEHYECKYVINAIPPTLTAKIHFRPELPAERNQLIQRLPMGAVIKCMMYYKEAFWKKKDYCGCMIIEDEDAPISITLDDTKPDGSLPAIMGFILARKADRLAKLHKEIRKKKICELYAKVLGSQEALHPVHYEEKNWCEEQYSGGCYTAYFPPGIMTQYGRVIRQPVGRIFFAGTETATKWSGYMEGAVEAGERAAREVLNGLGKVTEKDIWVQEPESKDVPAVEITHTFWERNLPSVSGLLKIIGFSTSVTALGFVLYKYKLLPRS
Chain of beta2 (h) (P07550 whole entry): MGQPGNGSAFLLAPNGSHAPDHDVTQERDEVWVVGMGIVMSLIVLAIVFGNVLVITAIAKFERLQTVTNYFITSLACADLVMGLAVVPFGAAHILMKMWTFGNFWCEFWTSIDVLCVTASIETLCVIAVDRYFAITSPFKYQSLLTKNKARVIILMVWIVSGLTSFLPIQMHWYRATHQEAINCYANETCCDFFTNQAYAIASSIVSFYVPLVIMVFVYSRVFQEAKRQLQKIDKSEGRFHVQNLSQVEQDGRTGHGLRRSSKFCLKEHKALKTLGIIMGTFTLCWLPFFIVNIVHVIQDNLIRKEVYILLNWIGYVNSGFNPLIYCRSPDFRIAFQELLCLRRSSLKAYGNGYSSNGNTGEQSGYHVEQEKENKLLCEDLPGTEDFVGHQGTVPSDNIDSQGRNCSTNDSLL
Chain of IRK (h) (InsR) (P06213 28-1382): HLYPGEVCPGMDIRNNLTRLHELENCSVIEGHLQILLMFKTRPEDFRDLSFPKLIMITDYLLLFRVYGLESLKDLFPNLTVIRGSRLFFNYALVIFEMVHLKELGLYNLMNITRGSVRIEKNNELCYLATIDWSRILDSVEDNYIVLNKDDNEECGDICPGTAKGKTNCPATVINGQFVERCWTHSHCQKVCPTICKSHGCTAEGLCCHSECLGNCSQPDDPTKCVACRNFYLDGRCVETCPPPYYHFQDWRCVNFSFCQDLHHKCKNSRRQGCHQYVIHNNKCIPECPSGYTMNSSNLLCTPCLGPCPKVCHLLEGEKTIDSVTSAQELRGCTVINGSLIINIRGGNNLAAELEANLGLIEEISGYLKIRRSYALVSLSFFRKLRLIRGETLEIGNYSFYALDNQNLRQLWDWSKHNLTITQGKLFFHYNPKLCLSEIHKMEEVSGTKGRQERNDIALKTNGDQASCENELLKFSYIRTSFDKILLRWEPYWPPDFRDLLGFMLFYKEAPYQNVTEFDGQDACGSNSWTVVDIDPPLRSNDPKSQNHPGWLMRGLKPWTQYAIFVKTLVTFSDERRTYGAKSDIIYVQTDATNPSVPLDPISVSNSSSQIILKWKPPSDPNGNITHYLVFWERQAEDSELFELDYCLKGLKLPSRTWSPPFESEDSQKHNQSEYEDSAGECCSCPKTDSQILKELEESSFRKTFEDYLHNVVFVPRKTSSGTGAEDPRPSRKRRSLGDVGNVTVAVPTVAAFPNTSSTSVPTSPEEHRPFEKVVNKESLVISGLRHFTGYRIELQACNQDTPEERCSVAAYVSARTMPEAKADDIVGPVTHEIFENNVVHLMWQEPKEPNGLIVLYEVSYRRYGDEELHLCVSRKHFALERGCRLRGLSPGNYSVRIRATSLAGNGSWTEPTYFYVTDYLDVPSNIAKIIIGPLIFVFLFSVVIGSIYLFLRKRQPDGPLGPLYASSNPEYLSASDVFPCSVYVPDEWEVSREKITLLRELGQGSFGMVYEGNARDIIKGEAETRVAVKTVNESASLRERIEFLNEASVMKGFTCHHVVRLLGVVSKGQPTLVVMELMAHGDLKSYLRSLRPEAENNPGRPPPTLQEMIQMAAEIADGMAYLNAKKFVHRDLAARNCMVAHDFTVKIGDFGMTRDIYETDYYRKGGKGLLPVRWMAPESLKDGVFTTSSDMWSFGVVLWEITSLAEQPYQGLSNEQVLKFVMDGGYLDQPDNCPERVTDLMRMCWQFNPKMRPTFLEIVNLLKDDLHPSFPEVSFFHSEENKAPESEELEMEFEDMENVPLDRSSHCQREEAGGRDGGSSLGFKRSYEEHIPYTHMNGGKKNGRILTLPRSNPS
T4 sequence (P28223 whole entry): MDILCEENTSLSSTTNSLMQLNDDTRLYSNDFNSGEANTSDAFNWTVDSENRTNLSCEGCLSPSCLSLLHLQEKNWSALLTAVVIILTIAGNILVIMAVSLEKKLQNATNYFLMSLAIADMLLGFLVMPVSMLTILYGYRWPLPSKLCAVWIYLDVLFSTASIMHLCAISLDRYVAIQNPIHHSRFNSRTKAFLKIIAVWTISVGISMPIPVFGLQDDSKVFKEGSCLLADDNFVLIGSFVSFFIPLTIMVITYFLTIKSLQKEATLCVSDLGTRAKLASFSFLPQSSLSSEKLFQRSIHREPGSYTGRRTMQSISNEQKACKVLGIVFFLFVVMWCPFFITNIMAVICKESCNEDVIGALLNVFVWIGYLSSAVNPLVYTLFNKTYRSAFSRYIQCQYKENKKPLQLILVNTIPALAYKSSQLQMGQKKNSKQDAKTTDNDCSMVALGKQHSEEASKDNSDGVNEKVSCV
Chain of Oxytocin (h) (P30559 whole entry): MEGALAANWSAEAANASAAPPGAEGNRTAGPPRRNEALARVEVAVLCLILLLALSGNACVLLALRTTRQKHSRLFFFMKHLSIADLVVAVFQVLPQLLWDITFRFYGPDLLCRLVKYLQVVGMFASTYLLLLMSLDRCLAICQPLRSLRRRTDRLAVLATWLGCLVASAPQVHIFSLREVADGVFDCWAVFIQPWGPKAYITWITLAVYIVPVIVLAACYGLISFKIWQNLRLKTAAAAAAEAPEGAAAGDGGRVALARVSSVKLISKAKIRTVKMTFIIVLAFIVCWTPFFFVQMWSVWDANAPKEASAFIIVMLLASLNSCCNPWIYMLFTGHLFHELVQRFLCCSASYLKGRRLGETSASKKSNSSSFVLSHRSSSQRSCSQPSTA
Chain of alpha2C (h) (P18825 whole entry): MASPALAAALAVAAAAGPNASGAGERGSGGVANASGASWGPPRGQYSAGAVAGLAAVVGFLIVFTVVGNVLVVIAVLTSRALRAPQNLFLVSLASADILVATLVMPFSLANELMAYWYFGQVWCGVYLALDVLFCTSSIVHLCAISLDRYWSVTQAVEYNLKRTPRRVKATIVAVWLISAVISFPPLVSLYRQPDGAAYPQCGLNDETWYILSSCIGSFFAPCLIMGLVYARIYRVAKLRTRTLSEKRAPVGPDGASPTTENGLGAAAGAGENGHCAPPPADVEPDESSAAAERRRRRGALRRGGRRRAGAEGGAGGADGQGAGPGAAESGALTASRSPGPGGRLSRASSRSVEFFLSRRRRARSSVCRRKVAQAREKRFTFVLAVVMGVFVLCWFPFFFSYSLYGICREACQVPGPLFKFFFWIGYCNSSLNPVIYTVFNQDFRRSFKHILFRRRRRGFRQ
T1 sequence (P07711 114-333): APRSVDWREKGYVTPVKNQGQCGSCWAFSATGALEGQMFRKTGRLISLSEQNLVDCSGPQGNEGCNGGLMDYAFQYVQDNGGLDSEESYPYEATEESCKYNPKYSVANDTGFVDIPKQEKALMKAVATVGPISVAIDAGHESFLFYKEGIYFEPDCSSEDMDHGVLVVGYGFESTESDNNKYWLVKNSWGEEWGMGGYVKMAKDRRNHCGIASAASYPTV

Compound: Fc1nc(N2CCOCC2)ccc1-c1cc2ccccc2[nH]1 [Compound 75, 4-(6-Fluoro-5-(1H-indol-2-yl)pyridin-2-yl)morpholine]
- % Inhibition, Specific binding [1]: 2.179%
- % Inhibition, Enzymatic activity [2]: 15.4729%
- inhibition at 10 µM [3]: 18.1%
- % Inhibition, Specific binding [4]: -4.91E+00%
- inhibition at 10 µM [5]: 13.6%
- inhibition at 10 µM [6]: -5.12%
- inhibition at 10 µM [7]: 1.64%
- % Inhibition, Specific binding [8]: 6.092%
- % Inhibition, Specific binding [9]: 4.9424%
- inhibition at 10 µM [10]: 3.62%
- % Inhibition, Specific binding [11]: 25.3038%
- % Inhibition, Specific binding [12]: 1.045%
- % Inhibition, Specific binding [13]: 5.821%
- % Inhibition, Specific binding [14]: -7.00E+00%
- inhibition at 10 µM [15]: 7.11%
- % Inhibition, Specific binding [16]: 0.4312%
- inhibition at 10 µM [17]: -0.914%
- % Inhibition [18]: 16.5474%
- inhibition at 10 µM [19]: -13.7%
- % Inhibition, Enzymatic activity [20]: -8.91E+00%
- % Inhibition, Specific binding [21]: 4.876%
- inhibition at 10 µM [22]: -3.1%
- % Inhibition [23]: 7.0556%
- inhibition at 10 µM [24]: -5.9%
- % Inhibition, Specific binding [25]: -1.19E+01%
- % Inhibition, Enzymatic activity [26]: -7.60E+00%
- % Inhibition, Specific binding [27]: 0.1083%
- inhibition at 10 µM [28]: 3.36%
- % Inhibition, Specific binding [29]: -2.08E+01%
